# Results reported in US20240043435A1, “TYK-2 INHIBITOR” (BEIGENE, LTD., priority 2020, published 2024).
# Legend:
# [1] = tested on: JAK2, TYK2/p-STAT4 (Tyr693) activated by IL-12 in NK-92 cell line; test: IL-12-JAK2, TYK2/p-STAT4 (Tyr693) inhibition IC50 cellular assay; type: cell-based; settings: for Selectivity fold (TYK2/JAK2): Cellular assay, pSTAT5/GM-CSF IC50 vs pSTAT4/IL-12 IC50; for IC50: NK92, Cellular assay, read-out: pSTAT4/IL-12 IC50
# How it was run: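 NK-92 cells were starved overnight without IL-2 and preincubated 1 h at 37° C with compound (8 doses, 10000–0.61 nM, 4-fold, 0.2% DMSO). They were then stimulated with IL-12 (40 ng/ml final) for 30 min. Lysate p-STAT4 (Tyr693) was read by AlphaLISA SureFire; IC50 from four-parameter logistic fit.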
# pSTAT5/GM-CSF = pSTAT5/GM-CSF cellular assay (JAK2 selectivity); type: cell-based
# [2] = molecular target: T1, TYK2-JH2 (aa 575-869, in-house) protein (Homo sapiens, UniProt P29597); test: TYK2-JH2 biochemical assay (HTRF probe displacement); type: binding; settings: Biochemical assay; read-out: TYK2-JH2 IC50
# T1 construct: TYK2-JH2 (aa 575-869, in-house) protein; made in house
# T1 sequence (P29597 575-869): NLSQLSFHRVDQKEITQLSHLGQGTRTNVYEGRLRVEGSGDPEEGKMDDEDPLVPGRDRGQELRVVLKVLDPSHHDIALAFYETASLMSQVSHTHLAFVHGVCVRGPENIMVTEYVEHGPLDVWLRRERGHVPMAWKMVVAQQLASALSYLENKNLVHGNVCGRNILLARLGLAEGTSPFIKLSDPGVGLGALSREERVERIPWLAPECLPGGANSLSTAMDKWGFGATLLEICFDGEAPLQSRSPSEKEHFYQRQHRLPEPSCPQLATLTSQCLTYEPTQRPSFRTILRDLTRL
# How it was run: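 Recombinant TYK2-JH2 (0.2 nM) was pre-incubated 0.5 h at room temperature with compounds (10 doses, 5-fold dilution; 500× DMSO stocks from 500 uM) in 20 mM HEPES pH 7.5, 10 mM MgCl2, 0.005% BSA, 2 mM DTT, 0.015% Brij-35. Probe displacement was read by HTRF (ex337, em620/665 nm); IC50 from four-parameter logistic fit.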
# [3] = pSTAT5/GM-CSF IC50 over pSTAT4/IL-12 IC50
IC50 [1] [nM],IC50 (pSTAT5/GM-CSF) [nM],IC50 [2] [nM],Compound,Selectivity fold (TYK2/JAK2) [1] [fold],Selectivity fold (TYK2/JAK2) (pSTAT5/GM-CSF; [3]) [fold],Selectivity fold (TYK2/JAK2) (pSTAT5/GM-CSF; pSTAT5/GM-CSF vs pSTAT4/IL-12) [fold]
0.995,> 10000,0.024,"CC(=O)Nc1cc(Nc2cc(C3CCOCC3)cc(S(C)(=O)=O)n2)c(-c2ccc(N3C[C@@H](C)O[C@@H](C)C3)cn2)cn1 [Example C21, N-(5-(cis-2,6-dimethylmorpholino)-4′-((6-(methylsulfonyl)-4-(tetrahydro-2H-pyran-4-yl)pyridin-2-yl)amino)-[2,3′-bipyridin]-6′-yl)acetamide]",>10050,–,–
0.462,> 10000,0.018,"CC(=O)Nc1cc(Nc2nc(S(C)(=O)=O)ccc2OC(F)F)c(-c2ccn(C)n2)cn1 [Example J63, N-(4-((3-(difluoromethoxy)-6-(methylsulfonyl)pyridin-2-yl)amino)-5-(1-methyl-1H-pyrazol-3-yl)pyridin-2-yl)acetamide]",–,>21645,–
0.326,> 10000,0.029,"CC(=O)Nc1cc(Nc2cc(Cl)cc(S(C)(=O)=O)n2)c(-c2ccn(C)n2)cn1 [Example J40, N-(4-((4-chloro-6-(methylsulfonyl)pyridin-2-yl)amino)-5-(1-methyl-1H-pyrazol-3-yl)pyridin-2-yl)acetamide]",–,>30674,–
1.25,8870,0.014,"COCCOc1cc(Nc2cc(NC(C)=O)ncc2-c2ccc(C(C)(C)O)cn2)nc(S(C)(=O)=O)c1 [Example H6, N-(5-(2-hydroxypropan-2-yl)-4′-((4-(2-methoxyethoxy)-6-(methylsulfonyl)pyridin-2-yl)amino)-[2,3′-bipyridin]-6′-yl)acetamide]",7097,–,–
11.7,> 10000,0.039,"CC(=O)Nc1cc(Nc2cc(OCC(C)O)cc(S(C)(=O)=O)n2)c(-c2ccc(C(C)(C)O)cn2)cn1 (stereo not shown) [Example H26, N-(5-(2-hydroxypropan-2-yl)-4′-((4-(2-hydroxypropoxy)-6-(methylsulfonyl)pyridin-2-yl)amino)-[2,3′-bipyridin]-6′-yl)acetamide]",>854,–,–
0.536,> 10000,0.022,"COCc1ccc(-c2cnc(NC(C)=O)cc2Nc2cc(OC(C)C)cc(S(C)(=O)=O)n2)nc1 [Example E4, N-(4′-((4-isopropoxy-6-(methylsulfonyl)pyridin-2-yl)amino)-5-(methoxymethyl)-[2,3′-bipyridin]-6′-yl)acetamide]",>18656,–,–
1.12,2380,0.03,"CC(=O)Nc1cc(Nc2cc(C)cc(S(C)(=O)=O)n2)c(-c2ccc(C(C)(C)N)cn2)cn1 [Example A20, N-(5-(2-aminopropan-2-yl)-4′-((4-methyl-6-(methylsulfonyl)pyridin-2-yl)amino)-[2,3′-bipyridin]-6′-yl)acetamide]",2124,–,–
4.89,> 10000,0.029,"COCCOc1cc(Nc2cc(NC(C)=O)ncc2-c2ccc(C(C)(C)O)cn2)cc(S(C)(=O)=O)c1 [Example H15, N-(5-(2-hydroxypropan-2-yl)-4′-((3-(2-methoxyethoxy)-5-(methylsulfonyl)phenyl)amino)-[2,3′-bipyridin]-6′-yl)acetamide]",>2044,–,–
5.7,> 10000,0.034,"CC(=O)Nc1cc(Nc2cc(OC3CC3)cc(S(C)(=O)=O)c2)c(-c2ccc(C(C)(C)O)cn2)cn1 [Example H23, N-(4′-((3-cyclopropoxy-5-(methylsulfonyl)phenyl)amino)-5-(2-hydroxypropan-2-yl)-[2,3′-bipyridin]-6′-yl)acetamide]",>1754,–,–
0.137,> 10000,0.029,"COc1cc(Nc2cc(NC(C)=O)ncc2-c2cc(C)n(C)n2)nc(S(C)(=O)=O)c1 [Example N4, N-(5-(1,5-dimethyl-1H-pyrazol-3-yl)-4-((4-methoxy-6-(methylsulfonyl)pyridin- -2-yl)amino)pyridin-2-yl)acetamide]",–,>72992,–
3.17,> 10000,0.028,"CC(=O)Nc1cc(Nc2cc(S(C)(=O)=O)ccc2C)c(-c2ccc(C(C)(C)O)cn2)cn1 [Example H35, N-(5-(2-hydroxypropan-2-yl)-4′-((2-methyl-5-(methylsulfonyl)phenyl)amino)-[2,3′-bipyridin]-6′-yl)acetamide]",>3154,–,–
5.54,> 10000,0.032,"CC(=O)Nc1cc(Nc2cc(OC(F)(F)F)cc(S(C)(=O)=O)c2)c(-c2ccc(C(C)(C)O)cn2)cn1 [Example H18, N-(5-(2-hydroxypropan-2-yl)-4′-((3-(methylsulfonyl)-5-(trifluoromethoxy)phenyl)amino)-[2,3′-bipyridin]-6′-yl)acetamide]",>1805,–,–
224,> 10000,0.05,"CC(=O)Nc1cc(Nc2cc(OCCO)cc(S(C)(=O)=O)n2)c(-c2ccc(N3CCOCC3=O)cn2)cn1 [Example G3, N-(4′-((4-(2-hydroxyethoxy)-6-(methylsulfonyl)pyridin-2-yl)amino)-5-(3-oxomorpholino)-[2,3′-bipyridin]-6′-yl)acetamide]",–,–,>44
0.744,> 10000,0.025,"CCOc1cc(Nc2cc(NC(C)=O)ncc2-c2ccn(C)n2)nc(S(C)(=O)=O)c1 [Example J43, N-(4-((4-ethoxy-6-(methylsulfonyl)pyridin-2-yl)amino)-5-(1-methyl-1H-pyrazol-3-yl)pyridin-2-yl)acetamide]",–,>13440,–
0.63,2600,0.022,"CC(=O)Nc1cc(Nc2cc(N3CCOC[C@@H]3C)cc(S(C)(=O)=O)n2)c(-c2ccc(N3C[C@@H](C)O[C@@H](C)C3)cn2)cn1 [Example C23, N-(5-(cis-2,6-dimethylmorpholino)-4′-((4-((S)-3-methylmorpholino)-6-(methylsulfon-yl)pyridin-2-yl)amino)-[2,3′-bipyridin]-6′-yl)ace-tamide]",4126,–,–
16.4,> 10000,0.017,CC(=O)Nc1cc(Nc2cc(O[C@H]3C[C@H](O)C3)cc(S(C)(=O)=O)n2)c(-c2ccc(C(C)(C)O)cn2)cn1 [Example H10],>607,–,–
0.82,> 10000,0.033,"[2H]C([2H])([2H])Oc1cc(Nc2cc(NC(C)=O)ncc2-c2ccc(F)cn2)nc(S(C)(=O)=O)c1 [Example F24, N-(5-fluoro-4′-((4-(methoxy-d3)-6-(methylsulfonyl)pyridine-2-yl)amino)-[2,3′-bipyridin]-6′-yl)acetamide]",>12195,–,–
4.8,> 10000,0.08,"COCCOc1ccc(-c2cnc(NC(C)=O)cc2Nc2cc(C(F)(F)F)cc(S(C)(=O)=O)c2)nc1 [Example D3, N-(5-(2-methoxyethoxy)-4′-((3-(methylsulfonyl)-5-(trifluoromethyl)phenyl)amino)-[2,3′-bipyridin]-6′-yl)acetamide]",>2083,–,–
6.05,> 10000,0.028,"CC(=O)Nc1cc(Nc2cc(OCC(C)O)cc(S(C)(=O)=O)n2)c(-c2ccn(C)n2)cn1 (stereo not shown) [Example J24, N-(4-((4-(2-hydroxypropoxy)-6-(methylsulfonyl)pyridin-2-yl)amino)-5-(1-methyl-1H-pyrazol-3-yl)pyridin-2-yl)acetamide]",–,>1652,–
2.35,> 10000,0.033,"CC(=O)Nc1cc(Nc2cc(OC3CCOC3)cc(S(C)(=O)=O)n2)c(-c2ccn(C)n2)cn1 (stereo not shown) [Example J46, N-(5-(1-methyl-1H-pyrazol-3-yl)-4-((6-(methylsulfonyl)-4-((tetrahydrofuran-3-yl)oxy)pyridin-2-yl)amino)pyridin-2-yl)acetamide]",–,>4255,–
9.46,> 10000,0.03,"CCn1ccc(-c2cnc(NC(C)=O)cc2Nc2cc(OCCOC)cc(S(C)(=O)=O)c2)n1 [Example M14, N-(5-(1-ethyl-1H-pyrazol-3-yl)-4-((3-(2-methoxyethoxy)-5-(methylsulfonyl)phenyl)amino)pyridin-2-yl)acetamide]",–,>1057,–

Compound,IC50 [1] [nM],IC50 (pSTAT5/GM-CSF) [nM],IC50 [2] [nM],Selectivity fold (TYK2/JAK2) [1] [fold],Selectivity fold (TYK2/JAK2) (pSTAT5/GM-CSF; [3]) [fold],Selectivity fold (TYK2/JAK2) (pSTAT5/GM-CSF; pSTAT5/GM-CSF vs pSTAT4/IL-12) [fold]
"CC(=O)Nc1cc(Nc2cc(OC3CCC3)cc(S(C)(=O)=O)n2)c(-c2ccc(C(C)(C)O)cn2)cn1 [Example H31, N-(4′-((4-cyclobutoxy-6-(methylsulfonyl)pyridin-2-yl)amino)-5-(2-hydroxypropan-2-yl)-[2,3′-bipyridin]-6′-yl)acetamide]",0.935,> 10000,0.023,>10695,–,–
